Patent US12280065B2, “Pharmaceutical compounds and therapeutic methods” (RUTGERS, THE STATE UNIVERSITY OF NEW JERSEY, priority 2019, dated 2025)

Assays:
mutant p53-R175H protein = target: T1, mutant p53-R175H protein (Homo sapiens, UniProt P04637, R175H); test: Mutant p53 refolding assay (immunofluorescent staining with PAB1620 and PAB240); format: cell-based; conditions: p53-R175H cells (e.g. TOV 112D), treated 6 hours; data not shown
T1 construct: endogenous in cells; host or cells: TOV 112D (p53-R175H cells)
Protocol: An immunofluorescent staining using p53 conformation specific antibodies was used to determine if a test compound could induce the mutant p53 protein refolding to a wildtype conformation. The p53-R175H cells (e.g. TOV 112D) cultured in DMEM+10% FBS were treated with a test compound for 6 hours, then fixed and stained with the antibodies PAB1620 (recognizing WT conformation) and PAB240 (recognizing misfolded/unfolded conformation) respectively.

[1] = Colonogenic assay for long term cell killing; format: cell-based; conditions: ZN-6 at 10 nM; exposure up to 60 minutes, washout, crystal violet staining after 14-day incubation
Protocol: Cell growth inhibition for 3 days is an effect for a short term treatment. A colonogenic assay was used for the long term cell killing effect. One thousand cells were seeded in each well in 6-well plates. On the second day the cells were exposed with the dilutions of the compound for up to 60 minutes. After that the compound was washed away and the cells were refed with fresh medium without the compound. The colonies were visualized by crystal violet staining after 14-day incubation.

[2] = Solubility of zinc complexes; format: physicochemical
[3] = tested on: human tumor cell lines with different p53 status; test: Cell growth inhibition assay (Calcein AM); format: cell-based; conditions: for EC50: cell growth, Calcein AM, incubation for 3 days, cell line not stated; for Fold (ZN-1/compound) / Fold (compound/ZN-1): ratio of EC50s
Protocol: Cell growth inhibition assay using human tumor cell lines with different p53 status (wildtype, null, p53-R175H or other zinc binding deficient mutants) were employed to determine if a test compound functions as a zinc metallochaperone to restore wildtype p53 functions. The cell growth inhibition assay was performed by Calcein AM assay (Trevigen). Five thousand cells per well were cultured in 96-well plate to reach the 50% confluence on the second day when treated with serial dilutions of the compounds. Growth was measured by Calcein AM assay (Trevigen) and Victor Plate reader instrument (PerkinElmer) after incubation for 3 days.

[4] = tested on: p53 target genes PUMA and GDF15 in p53-R175H cells; test: Mutant p53 transcriptional reactivation assay by qRT-PCR of p53 target genes; format: cell-based
Protocol: p53 is a transcription factor. The reactivation of mutant p53 can be detected by regulation of the p53 target genes using quantitative reverse transcription PCR (qRT-PCR). The p53-R175H cells were treated with the compound for 6 hours and 24 hours followed by qRT-PCR to analyze the gene expression regulation. The two p53 target genes in this assay were PUMA and GDF15. For ZN-6, the expression levels were induced for 18-fold and 53-fold respectively (in parental cells). To double check the p53 dependence of the effect, the same assay applied to the p53 knockout cell line (KO, done by CRISPR-cas9 technology) and the p53 transient knockdown cells (KD, using siRNA knockdown). The PUMA induction was only 2× and 5× and GDF15 induction was only 1× and 5× in KO and KD cells, respectively (See FIG. 1).

[5] = p53 knockout cell line (KO, CRISPR-cas9)
[6] = p53 transient knockdown cells (KD, siRNA)
[7] = parental p53-R175H cells, 6 hours and 24 hours treatment

SMILES | Refolding of mutant p53 to wildtype conformation (mutant p53-R175H protein) | Earliest exposure time that showed effect on colony formation [1] [min] | Solubility in 5% EtOH, 4% Tween80, 4% Kolliphor, 87% water ([2]; 5% EtOH, 4% Tween80, 4% Kolliphor, 87% water) [µg/mL] | Solubility in 10% EtOH, 10% captisol, 80% water ([2]; 10% EtOH, 10% captisol, 80% water) [µg/mL] | Solubility in 50% EtOH 50% H2O ([2]; 50% EtOH, 50% H2O) [µg/mL] | Solubility in DMSO [2] [µg/mL] | Solubility in EtOH [2] [µg/mL] | EC50 [3] [nM] | Fold (ZN-1/compound) [3] | Fold (compound/ZN-1) [3] | GDF15 induction [4, 5] [×] | PUMA induction [4, 5] [×] | GDF15 induction [4, 6] [×] | PUMA induction [4, 6] [×] | GDF15 expression induction [4, 7] [fold] | PUMA expression induction [4, 7] [fold]
C/C(=N\NC(=S)N1CCC1)c1ccccn1 [ZMC1, reference compound] | change the mutant p53-R175H protein from mutant conformation to WT conformation | 15 |  |  |  |  |  |  |  |  |  |  |  |  |  | 
COCCOCc1cccnc1/C(C)=N/NC(=S)N(C)C.COCCOCc1cccnc1/C(C)=N/NC(=S)N(C)C.[Zn] [ZN-6, Zn[(E)-2-(1-(3-((2-methoxyethoxy)methyl)pyridin-2-yl)ethylidene)-N,N-dimethylhydrazine-1-carbothioamide]2] | change the mutant p53-R175H protein from mutant conformation to WT conformation | 15 | 1000 | 1000 | >5000 | >10000 | >10000 | 5.41 | 0.5 | 2.0 | 1 | 2 | 5 | 5 | 53 | 18
C/C(=N\NC(=S)N(C)C)c1ncccc1CN1CCOCC1.C/C(=N\NC(=S)N(C)C)c1ncccc1CN1CCOCC1.[Zn] [ZN-7, Zn[(E)-N,N-dimethyl-2-(1-(3-(morpholinomethyl)pyridin-2-yl)ethylidene)hydrazine-1-carbothioamide]2] |  |  |  |  |  | >5000 | 1000 to 2000 | 8.36 | 0.3 | 3.1 |  |  |  |  |  | 
COCCOCc1ccnc(/C(C)=N/NC(=S)N(C)C)c1.COCCOCc1ccnc(/C(C)=N/NC(=S)N(C)C)c1.[Zn] [ZN-12, Zn[(E)-2-(1-(4-((2-methoxyethoxy)methyl)pyridin-2-yl)ethylidene)-N,N-dimethylhydrazine-1-carbothioamide]2] |  |  |  |  |  |  |  | 2.52 | 1.1 | 0.9 |  |  |  |  |  | 
